These results are taken from PMC10385989, “Evaluation of the Ability of PAMPA Membranes to Emulate Biological Processes through the Abraham Solvation Parameter Model” (Membranes, 2023).

For one data set the following is noted: pH 7.4.
Description: First, the top part of the skin-PAMPA (PAMPA-Certramide) sandwich, which contains the membrane, was hydrated overnight with the hydration solution. Different buffer solutions at pH 3, 4, 5, 6, 7, and 7.4 were prepared to solve the samples. To prepare them, 25 mL of concentrated PRISMA HTTM was diluted to 1 L with water, and 0.5 M NaOH was added to obtain the desired pH. Above pH 8, the skin-PAMPA membrane becomes degraded [40], so pH 7.4 was the highest pH used in the present work. In order to measure the intrinsic permeability, each sample was dissolved in the buffer solution with a pH that ensured the presence of the neutral form. […] In all instances, the pH of the acceptor compartment was 7.4.
A total of 180 µL of sample solution was placed in the donor compartment, and 200 µL of pH 7.4 buffer was placed in the acceptor compartment.
According to previous studies, in which the conditions in the skin-PAMPA measurements were optimized [40], the skin-PAMPA sandwich was incubated at 32 °C for 4 h. Afterwards, the concentration of the compounds was measured in both the donor and the acceptor plates. Additionally, the initial sample solution was quantified. […] The injection volume was 5 μL, and 3 to 5 replicate measurements were performed per compound. Every well-plate contained only one compound.
When the pH is different on the two sides of the membrane, a gradient-pH is created and the permeation of ionizable molecules can be altered. This gradient-pH implies two different permeability coefficients, one on each direction of the membrane, denoted by the subscript (D→A) or (A→D). Equation (5) has two unknowns, Pe(A→D) and Pe(D→A), so an iterative method has to be used to solve it. To this purpose, two different experiments were carried out for each compound, one with a gradient-pH and the other with an iso-pH, that is, the same pH in both compartments (7.4). For the iso-pH, Pe(A→D) = Pe(D→A).
Finally, Equation (5) was iteratively solved for Pe(D→A). Initially, ra was assumed to be rv, but the ra value was improved after each iteration by using the newly obtained Pe(D→A). The process continued until self-consistency was reached within the precision required (0.001). The Solver tool in Microsoft Excel was used for the iterative process.
In the donor compartment, a pH was used in which the compound was in its neutral form, whereas in the acceptor compartment, the buffer was at pH 7.4.
For `CCC1(CC)C(=O)NC(=O)NC1=O` [5,5-diethylbarbituric acid (barbital), 5,5-diethylbarbituric acid], the “log P0 (intrinsic permeability, PAMPA-Certramide)” value is on record as -5.75.

For the molecule `CCC1(c2ccccc2)C(=O)NC(=O)NC1=O` [5-ethyl-5-phenylbarbituric acid], the “log P0 (intrinsic permeability, PAMPA-Certramide)” value is on record as -6.05.

Turning to `CC(=O)CC(c1ccccc1)c1c(O)c2ccccc2oc1=O` (stereo not drawn) [warfarin], the “log P0 (intrinsic permeability, PAMPA-Certramide)” value was -4.63.

Consider `C[C@]12CCC(=O)C=C1CC[C@@H]1[C@@H]2CC[C@@]2(C)[C@H]1CC[C@]2(O)C(=O)CO` [corteloxone], for which the “log P0 (intrinsic permeability, PAMPA-Certramide)” value is reported as -5.45.

With `Nc1ccccc1` [aniline], the “log P0 (intrinsic permeability, PAMPA-Certramide)” value was -4.55.

In the case of `COC(=O)Cc1ccc(O)cc1` [4-hydroxymethyl phenylacetate], the “log P0 (intrinsic permeability, PAMPA-Certramide)” value is listed as -5.07.

Turning to `CCNc1nc(Cl)nc(NC(C)C)n1` [atrazine], the “log P0 (intrinsic permeability, PAMPA-Certramide)” value is -4.67.

Turning to `COc1ccccc1` [methyl phenyl ether], the “log P0 (intrinsic permeability, PAMPA-Certramide)” value is on record as -4.34.

Take `CC(=O)[C@@]1(O)CC[C@H]2[C@@H]3CCC4=CC(=O)CC[C@]4(C)[C@H]3CC[C@@]21C` [hydroxiprogesterone]: the “log P0 (intrinsic permeability, PAMPA-Certramide)” value is recorded as -4.70.

The conditions of another data set: cited from earlier work.
In the case of `CCC1(c2ccccc2)C(=O)NC(=O)NC1=O` [5-ethyl-5-phenylbarbituric acid], the “log P0 (permeability, PAMPA-IPM)” value is -5.15.

With `Oc1ccccc1` [phenol], the “log P0 (permeability, PAMPA-IPM)” value is given as -4.14.

For the molecule `CN1CCC[C@H]1c1cccnc1` [nicotine], the “log P0 (permeability, PAMPA-IPM)” value is -4.58.
